{"source": "patent US9096602B2", "about": "“Substituted pyrrolo[2,3-B]pyrazines as ATR kinase inhibitors” (Vertex Pharmaceuticals Incorporated, priority 2011, dated 2015)"}
{"biological_target": "T1, ATR kinase (full-length ATR) (Homo sapiens, UniProt Q13535)", "T1 construct": "Assays were carried out at 25° C. in the presence of 5 nM full-length ATR", "T1 sequence (Q13535 whole entry)": "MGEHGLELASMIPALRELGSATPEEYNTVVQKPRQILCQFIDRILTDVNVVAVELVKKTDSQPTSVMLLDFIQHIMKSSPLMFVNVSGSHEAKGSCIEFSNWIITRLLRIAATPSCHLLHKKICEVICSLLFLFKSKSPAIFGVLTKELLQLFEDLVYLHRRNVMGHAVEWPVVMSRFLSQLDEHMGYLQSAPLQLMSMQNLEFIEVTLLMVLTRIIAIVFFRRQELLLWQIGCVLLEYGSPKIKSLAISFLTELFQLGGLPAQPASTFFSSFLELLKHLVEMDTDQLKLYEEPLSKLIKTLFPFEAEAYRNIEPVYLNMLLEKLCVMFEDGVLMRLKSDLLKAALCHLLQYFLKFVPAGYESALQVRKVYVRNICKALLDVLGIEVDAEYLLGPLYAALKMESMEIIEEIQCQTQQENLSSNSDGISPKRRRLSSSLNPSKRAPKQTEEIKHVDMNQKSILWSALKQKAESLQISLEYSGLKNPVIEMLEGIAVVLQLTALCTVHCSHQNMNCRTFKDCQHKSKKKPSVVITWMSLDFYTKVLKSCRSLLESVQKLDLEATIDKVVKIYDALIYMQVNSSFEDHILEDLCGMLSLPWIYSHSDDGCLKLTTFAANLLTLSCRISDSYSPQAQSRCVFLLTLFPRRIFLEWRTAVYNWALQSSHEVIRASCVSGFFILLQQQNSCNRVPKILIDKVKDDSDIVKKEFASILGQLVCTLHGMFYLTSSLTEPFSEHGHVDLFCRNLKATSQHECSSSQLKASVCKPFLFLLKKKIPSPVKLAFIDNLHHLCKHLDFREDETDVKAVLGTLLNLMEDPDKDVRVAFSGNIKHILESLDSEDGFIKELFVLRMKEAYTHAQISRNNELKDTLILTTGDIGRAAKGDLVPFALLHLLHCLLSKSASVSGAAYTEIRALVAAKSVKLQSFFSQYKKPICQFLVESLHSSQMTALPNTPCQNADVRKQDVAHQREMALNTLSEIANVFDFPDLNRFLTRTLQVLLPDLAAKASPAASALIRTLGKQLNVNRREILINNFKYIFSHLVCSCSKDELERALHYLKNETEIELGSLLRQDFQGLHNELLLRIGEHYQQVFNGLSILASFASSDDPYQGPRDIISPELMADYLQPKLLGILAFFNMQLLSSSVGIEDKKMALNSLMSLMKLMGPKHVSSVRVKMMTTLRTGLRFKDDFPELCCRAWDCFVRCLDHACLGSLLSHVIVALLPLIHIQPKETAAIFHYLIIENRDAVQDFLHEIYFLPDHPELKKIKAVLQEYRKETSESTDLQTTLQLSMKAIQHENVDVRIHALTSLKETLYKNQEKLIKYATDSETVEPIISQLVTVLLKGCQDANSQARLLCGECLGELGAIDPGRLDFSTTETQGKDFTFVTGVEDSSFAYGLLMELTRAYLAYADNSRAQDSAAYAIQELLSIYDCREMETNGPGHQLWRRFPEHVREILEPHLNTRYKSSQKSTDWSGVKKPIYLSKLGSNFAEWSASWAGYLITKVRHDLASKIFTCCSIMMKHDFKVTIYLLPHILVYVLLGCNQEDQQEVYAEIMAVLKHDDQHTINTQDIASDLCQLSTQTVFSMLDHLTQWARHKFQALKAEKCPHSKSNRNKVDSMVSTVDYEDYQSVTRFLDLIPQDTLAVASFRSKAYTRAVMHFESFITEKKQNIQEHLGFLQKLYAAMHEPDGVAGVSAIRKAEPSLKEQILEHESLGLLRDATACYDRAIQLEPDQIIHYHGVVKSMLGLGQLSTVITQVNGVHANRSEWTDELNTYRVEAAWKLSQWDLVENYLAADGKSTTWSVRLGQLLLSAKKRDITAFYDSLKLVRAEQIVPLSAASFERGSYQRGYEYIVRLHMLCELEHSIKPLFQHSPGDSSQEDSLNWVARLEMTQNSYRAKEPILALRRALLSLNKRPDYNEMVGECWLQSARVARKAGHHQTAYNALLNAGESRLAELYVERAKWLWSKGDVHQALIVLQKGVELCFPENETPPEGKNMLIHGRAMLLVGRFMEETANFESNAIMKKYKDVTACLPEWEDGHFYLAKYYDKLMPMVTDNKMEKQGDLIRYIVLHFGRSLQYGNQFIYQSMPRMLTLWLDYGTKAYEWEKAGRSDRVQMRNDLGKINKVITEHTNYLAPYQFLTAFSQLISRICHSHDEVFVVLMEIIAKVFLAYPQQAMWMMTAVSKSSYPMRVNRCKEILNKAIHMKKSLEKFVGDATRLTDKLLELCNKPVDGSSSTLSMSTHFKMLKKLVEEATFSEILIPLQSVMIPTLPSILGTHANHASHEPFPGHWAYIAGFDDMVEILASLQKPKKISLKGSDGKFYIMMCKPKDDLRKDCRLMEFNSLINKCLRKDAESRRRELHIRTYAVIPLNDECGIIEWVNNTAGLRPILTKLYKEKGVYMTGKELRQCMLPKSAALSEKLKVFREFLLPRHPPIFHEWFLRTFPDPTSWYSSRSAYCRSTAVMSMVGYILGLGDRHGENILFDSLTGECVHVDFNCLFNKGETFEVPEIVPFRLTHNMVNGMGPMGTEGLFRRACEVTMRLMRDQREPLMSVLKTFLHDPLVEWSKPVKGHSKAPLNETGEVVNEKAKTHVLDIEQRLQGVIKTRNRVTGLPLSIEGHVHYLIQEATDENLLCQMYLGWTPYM", "assay": "ATR Inhibition Assay (radioactive-phosphate incorporation)", "assay_type": "biochemical", "settings": "Ki(app); 5 nM full-length ATR, 10 μM ATP, 800 μM target peptide, 25° C.; class symbols; read-out: ATR Inhibition Ki", "protocol": "(§1) Compounds were screened for their ability to inhibit ATR kinase using a radioactive-phosphate incorporation assay. Assays were carried out in a mixture of 50 mM Tris/HCl (pH 7.5), 10 mM MgCl2 and 1 mM DTT. Final substrate concentrations were 10 μM [y-33P]ATP (3mCi 33P ATP/mmol ATP, Perkin Elmer) and 800 μM target peptide ([…]).\n(§2) Assays were carried out at 25° C. in the presence of 5 nM full-length ATR. An assay stock buffer solution was prepared containing all of the reagents listed above, with the exception of ATP and the test compound of interest. […] The plate was pre-incubated for 10 minutes at 25° C. and the reaction initiated by addition of 15 μL [y-33P]ATP (final concentration 10 μM).\n(§3) The reaction was stopped after […] by the addition of 30 μL 0.1M phosphoric acid containing 2 mM ATP. A multiscreen phosphocellulose filter 96-well plate (Millipore, Cat no. MAPHN0B50) was pretreated with 100 μL 0.2M phosphoric acid prior to the addition of 45 μL of the stopped assay mixture. The plate was washed with 5×200 μL 0.2M phosphoric acid.\n(§4) After removing mean background values for all of the data points, Ki(app) data were calculated from non-linear regression analysis of the initial rate data using the Prism software package (GraphPad Prism version 3.0cx for Macintosh, GraphPad Software, San Diego Calif., USA).", "units": {"Ki": "nM"}}
{"smiles": "CC(C)S(=O)(=O)c1ccc(-c2cnc3[nH]cc(C(=O)NCc4ccccc4)c3n2)cc1", "note": "[Compound I-1, N-benzyl-2-(4-isopropylsulfonylphenyl)-5H-pyrrolo[2,3-b]pyrazine-7-carboxamide]", "Ki": "< 100"}
{"smiles": "CC(C)S(=O)(=O)c1ccc(-c2cnc3[nH]cc(C(=O)Nc4ccccc4)c3n2)cc1", "note": "[Compound I-2, 2-(4-isopropylsulfonylphenyl)-N-phenyl-5H-pyrrolo[2,3-b]pyrazine-7-carboxamide]", "Ki": "< 100"}
{"smiles": "CC(C)S(=O)(=O)c1ccc(-c2cnc3[nH]cc(C(=O)Nc4ccccn4)c3n2)cc1", "note": "[Compound I-4, 2-(4-isopropylsulfonylphenyl)-N-(2-pyridyl)-5H-pyrrolo[2,3-b]pyrazine-7-carboxamide]", "Ki": "100 to 500"}
{"smiles": "CC(C)S(=O)(=O)c1ccc(-c2cnc3[nH]cc(C(=O)Nc4cccnc4)c3n2)cc1", "note": "[Compound I-5, 2-(4-isopropylsulfonylphenyl)-N-(3-pyridyl)-5H-pyrrolo[2,3-b]pyrazine-7-carboxamide]", "Ki": "< 100"}
{"smiles": "CC(C)S(=O)(=O)c1ccc(-c2cnc3[nH]cc(C(=O)Nc4ccncc4)c3n2)cc1", "note": "[Compound I-6, 2-(4-isopropylsulfonylphenyl)-N-(4-pyridyl)-5H-pyrrolo[2,3-b]pyrazine-7-carboxamide]", "Ki": "100 to 500"}
{"smiles": "CC(C)S(=O)(=O)c1ccc(-c2cnc3[nH]cc(C(=O)N4CCc5ccccc54)c3n2)cc1", "note": "[Compound I-7, indolin-1-yl-[2-(4-isopropylsulfonylphenyl)-5H-pyrrolo[2,3-b]pyrazin-7-yl]methanone]", "Ki": "100 to 500"}
{"smiles": "CC(C)S(=O)(=O)c1ccc(-c2cnc3[nH]cc(C(=O)N(Cc4ccccc4)c4ccccc4)c3n2)cc1", "note": "[Compound I-8, N-benzyl-2-(4-isopropylsulfonylphenyl)-N-phenyl-5H-pyrrolo[2,3-b]pyrazine-7-carboxamide]", "Ki": "500 to 5000"}
{"smiles": "CCN(C(=O)c1c[nH]c2ncc(-c3ccc(S(=O)(=O)C(C)C)cc3)nc12)c1ccccc1", "note": "[Compound I-9, N-ethyl-2-(4-isopropylsulfonylphenyl)-N-phenyl-5H-pyrrolo[2,3-b]pyrazine-7-carboxamide]", "Ki": "500 to 5000"}
{"smiles": "CC(C)S(=O)(=O)c1ccc(-c2cnc3[nH]cc(C(=O)N(CCO)c4ccccc4)c3n2)cc1", "note": "[Compound I-10, N-(2-hydroxyethyl)-2-(4-isopropylsulfonylphenyl)-N-phenyl-5H-pyrrolo[2,3-b]pyrazine-7-carboxamide]", "Ki": "100 to 500"}
{"smiles": "COc1cccc(NC(=O)c2c[nH]c3ncc(-c4ccc(S(=O)(=O)C(C)C)cc4)nc23)c1", "note": "[Compound I-11, 2-(4-isopropylsulfonylphenyl)-N-(3-methoxyphenyl)-5H-pyrrolo[2,3-b]pyrazine-7-carboxamide]", "Ki": "500 to 5000"}
{"smiles": "COc1ccc(NC(=O)c2c[nH]c3ncc(-c4ccc(S(=O)(=O)C(C)C)cc4)nc23)cc1", "note": "[Compound I-12, 2-(4-isopropylsulfonylphenyl)-N-(4-methoxyphenyl)-5H-pyrrolo[2,3-b]pyrazine-7-carboxamide]", "Ki": "100 to 500"}
{"smiles": "CC(C)S(=O)(=O)c1ccc(-c2cnc3[nH]cc(C(=O)Nc4cccc(C#N)c4)c3n2)cc1", "note": "[Compound I-13, N-(3-cyanophenyl)-2-(4-isopropylsulfonylphenyl)-5H-pyrrolo[2,3-b]pyrazine-7-carboxamide]", "Ki": "100 to 500"}
{"smiles": "CC(C)S(=O)(=O)c1ccc(-c2cnc3[nH]cc(C(=O)Nc4ccc(C#N)cc4)c3n2)cc1", "note": "[Compound I-14, N-(4-cyanophenyl)-2-(4-isopropylsulfonylphenyl)-5H-pyrrolo[2,3-b]pyrazine-7-carboxamide]", "Ki": "500 to 5000"}
{"smiles": "Cc1ccccc1CNC(=O)c1c[nH]c2ncc(-c3ccc(S(=O)(=O)C(C)C)cc3)nc12", "note": "[Compound I-15, 2-(4-isopropylsulfonylphenyl)-N-(o-tolylmethyl)-5H-pyrrolo[2,3-b]pyrazine-7-carboxamide]", "Ki": "< 100"}
{"smiles": "Cc1cccc(CNC(=O)c2c[nH]c3ncc(-c4ccc(S(=O)(=O)C(C)C)cc4)nc23)c1", "note": "[Compound I-16, 2-(4-isopropylsulfonylphenyl)-N-(m-tolylmethyl)-5H-pyrrolo[2,3-b]pyrazine-7-carboxamide]", "Ki": "< 100"}
{"smiles": "Cc1ccc(CNC(=O)c2c[nH]c3ncc(-c4ccc(S(=O)(=O)C(C)C)cc4)nc23)cc1", "note": "[Compound I-17, 2-(4-isopropylsulfonylphenyl)-N-(p-tolylmethyl)-5H-pyrrolo[2,3-b]pyrazine-7-carboxamide]", "Ki": "< 100"}
{"smiles": "CC(C)S(=O)(=O)c1ccc(-c2cnc3[nH]cc(C(=O)Nc4ccc(N)cc4)c3n2)cc1", "note": "[Compound I-18, N-(4-aminophenyl)-2-(4-isopropylsulfonylphenyl)-5H-pyrrolo[2,3-b]pyrazine-7-carboxamide]", "Ki": "< 100"}
{"smiles": "CC(C)S(=O)(=O)c1ccc(-c2cnc3[nH]cc(C(=O)Nc4ccccc4N)c3n2)cc1", "note": "[Compound I-19, N-(2-aminophenyl)-2-(4-isopropylsulfonylphenyl)-5H-pyrrolo[2,3-b]pyrazine-7-carboxamide]", "Ki": "100 to 500"}
{"smiles": "CC(C)S(=O)(=O)c1ccc(-c2cnc3[nH]cc(C(=O)Nc4cccc(N)c4)c3n2)cc1", "note": "[Compound I-20, N-(3-aminophenyl)-2-(4-isopropylsulfonylphenyl)-5H-pyrrolo[2,3-b]pyrazine-7-carboxamide]", "Ki": "< 100"}
{"smiles": "CC(C)S(=O)(=O)c1ccc(-c2cnc3[nH]cc(C(=O)NCCN(C)C)c3n2)cc1", "note": "[Compound I-21, N-(2-dimethylaminoethyl)-2-(4-isopropylsulfonylphenyl)-5H-pyrrolo[2,3-b]pyrazine-7-carboxamide]", "Ki": "500 to 5000"}
{"smiles": "CC(C)S(=O)(=O)c1ccc(-c2cnc3[nH]cc(C(=O)Nc4cccc(O)c4)c3n2)cc1", "note": "[Compound I-22, N-(3-hydroxyphenyl)-2-(4-isopropylsulfonylphenyl)-5H-pyrrolo[2,3-b]pyrazine-7-carboxamide]", "Ki": "< 100"}
{"smiles": "CC(C)S(=O)(=O)c1ccc(-c2cnc3[nH]cc(C(=O)Nc4ccc(CCO)cc4)c3n2)cc1", "note": "[Compound I-24, N-[4-(2-hydroxyethyl)phenyl]-2-(4-isopropylsulfonylphenyl)-5H-pyrrolo[2,3-b]pyrazine-7-carboxamide]", "Ki": "< 100"}
{"smiles": "CC(C)S(=O)(=O)c1ccc(-c2cnc3[nH]cc(C(=O)Nc4ccccc4O)c3n2)cc1", "note": "[Compound I-25, N-(2-hydroxyphenyl)-2-(4-isopropylsulfonylphenyl)-5H-pyrrolo[2,3-b]pyrazine-7-carboxamide]", "Ki": "< 100"}
{"smiles": "CC(C)S(=O)(=O)c1ccc(-c2cnc3[nH]cc(C(=O)Nc4cccc(CO)c4)c3n2)cc1", "note": "[Compound I-26, N-[3-(hydroxymethyl)phenyl]-2-(4-isopropylsulfonylphenyl)-5H-pyrrolo[2,3-b]pyrazine-7-carboxamide]", "Ki": "< 100"}
{"smiles": "CC(C)S(=O)(=O)c1ccc(-c2cnc3[nH]cc(C(=O)N4CCCc5ccccc54)c3n2)cc1", "note": "[Compound I-27, 3,4-dihydro-2H-quinolin-1-yl-[2-(4-isopropylsulfonylphenyl)-5H-pyrrolo[2,3-b]pyrazin-7-yl]methanone]", "Ki": "100 to 500"}
{"smiles": "CC(C)S(=O)(=O)c1ccc(-c2cnc3[nH]cc(C(=O)N4CCC(O)C4)c3n2)cc1", "note": "(stereo not drawn) [Compound I-28, (3-hydroxypyrrolidin-1-yl)-[2-(4-isopropylsulfonylphenyl)-5H-pyrrolo[2,3-b]pyrazin-7-yl]methanone]", "Ki": "500 to 5000"}
{"smiles": "CC(C)S(=O)(=O)c1ccc(-c2cnc3[nH]cc(C(=O)NCC4CCC4)c3n2)cc1", "note": "[Compound I-29, N-(cyclobutylmethyl)-2-(4-isopropylsulfonylphenyl)-5H-pyrrolo[2,3-b]pyrazine-7-carboxamide]", "Ki": "< 100"}
{"smiles": "CC(C)S(=O)(=O)c1ccc(-c2cnc3[nH]cc(C(=O)NCC4CCCC4)c3n2)cc1", "note": "[Compound I-30, N-(cyclopentylmethyl)-2-(4-isopropylsulfonylphenyl)-5H-pyrrolo[2,3-b]pyrazine-7-carboxamide]", "Ki": "500 to 5000"}
{"smiles": "CC(C)S(=O)(=O)c1ccc(-c2cnc3[nH]cc(C(=O)NC[C@@H]4CCCC[C@H]4O)c3n2)cc1", "note": "[Compound I-33, N-[[(1S,2R)-2-hydroxycyclohexyl]methyl]-2-(4-isopropylsulfonylphenyl)-5H-pyrrolo[2,3-b]pyrazine-7-carboxamide]", "Ki": "< 100"}
{"biological_target": "T1, ATR kinase (full-length ATR)", "assay": "ATR Inhibition Assay (radioactive-phosphate incorporation)", "assay_type": "biochemical", "settings": "Ki(app); 5 nM full-length ATR, 10 μM ATP, 800 μM target peptide, 25° C.; given as numeric lower bound without unit; read-out: ATR Inhibition Ki", "protocol": "as §1, §2, §3, §4", "units": {"Ki": "nM"}}
{"smiles": "CC(C)S(=O)(=O)c1ccc(-c2cnc3[nH]cc(C(=O)N(C)c4ccccc4)c3n2)cc1", "note": "[Compound I-3, 2-(4-isopropylsulfonylphenyl)-N-methyl-N-phenyl-5H-pyrrolo[2,3-b]pyrazine-7-carboxamide]", "Ki": "> 250"}
{"smiles": "CC(C)S(=O)(=O)c1ccc(-c2cnc3[nH]cc(C(=O)N4CCCC(O)C4)c3n2)cc1", "note": "(stereo not drawn) [Compound I-23, (3-hydroxy-1-piperidyl)-[2-(4-isopropylsulfonylphenyl)-5H-pyrrolo[2,3-b]pyrazin-7-yl]methanone]", "Ki": "> 4000"}
{"smiles": "CC(C)S(=O)(=O)c1ccc(-c2cnc3[nH]cc(C(=O)NCC4CCCCC4)c3n2)cc1", "note": "[Compound I-31, N-(cyclohexylmethyl)-2-(4-isopropylsulfonylphenyl)-5H-pyrrolo[2,3-b]pyrazine-7-carboxamide]", "Ki": "> 500"}
{"smiles": "CC(C)S(=O)(=O)c1ccc(-c2cnc3[nH]cc(C(=O)N4CCC(CO)CC4)c3n2)cc1", "note": "[Compound I-32, [4-(hydroxymethyl)-1-piperidyl]-[2-(4-isopropylsulfonylphenyl)-5H-pyrrolo[2,3-b]pyrazin-7-yl]methanone]", "Ki": "> 4000"}
